Values after ≈ are worked out from the molar mass of the structure shown.
Key:
Candida albicans [1] = test: Antifungal activity against Candida albicans CPCC 400523 after 24 hrs by serial dilution method; format: functional; conditions: CPCC 400523, 24 h
Cryptococcus neoformans = test: Antifungal activity against Cryptococcus neoformans cgmcc 2.3161 after 72 hrs by serial dilution method; format: functional; conditions: cgmcc 2.3161, 72 h
Aspergillus fumigatus = test: Antifungal activity against Aspergillus fumigatus cgmcc 3.7795 after 7 days by serial dilution method; format: functional; conditions: cgmcc 3.7795, 168 h
Candida tropicalis = test: Antifungal activity against Candida tropicalis cgmcc 2.3739 after 24 hrs by serial dilution method; format: functional; conditions: cgmcc 2.3739, 24 h
Candida albicans [2] = test: Antifungal activity against Candida albicans ATCC SC5314 after 24 hrs by serial dilution method; format: functional; conditions: SC5314, 24 h
Candida albicans [3] = test: Antifungal activity against fluconazole-resistant Candida albicans strain 100 after 24 hrs by serial dilution method; format: functional; conditions: Candida albicans, 100, 24 h
Candida albicans [4] = test: Antifungal activity against fluconazole-resistant Candida albicans strain 103 after 24 hrs by serial dilution method; format: functional; conditions: Candida albicans, 103, 24 h
[5] = Stability in human plasma assessed as parent compound remaining at 2 uM after 60 mins by LC-MS/MS analysis; format: ADME, cell-free; conditions: read-out: Stability
[6] = Stability in human plasma assessed as parent compound remaining at 2 uM after 120 mins by LC-MS/MS analysis; format: ADME, cell-free; conditions: read-out: Stability

Row | MIC (Candida albicans [1]) | MIC (Cryptococcus neoformans) | MIC (Aspergillus fumigatus) | MIC (Candida tropicalis) | MIC (Candida albicans [2]) | SMILES | MIC (Candida albicans [3]) | MIC (Candida albicans [4]) | remaining at 1 h, 2 µM [5] | remaining at 2 h, 2 µM [6]
1 | 64 mg/L (≈ 178 µM) | 64 mg/L (≈ 178 µM) | 64 mg/L (≈ 178 µM) | 16 mg/L (≈ 44.5 µM) | 64 mg/L (≈ 178 µM) | CC(C)COC(=O)[C@H](Cn1ccnc1)NC(=O)c1ccc2c(c1)OCO2 | – | – | – | –
2 | 4 mg/L (≈ 9.42 µM) | 64 mg/L (≈ 151 µM) | 64 mg/L (≈ 151 µM) | 8 mg/L (≈ 18.8 µM) | 0.25 mg/L (≈ 0.589 µM) | COc1ccc2c(c1)CCc1c(C(=O)N[C@@H](Cn3ccnc3)C(=O)OC(C)C)noc1-2 | – | – | – | –
3 | 8 mg/L (≈ 22.6 µM) | 64 mg/L (≈ 181 µM) | 64 mg/L (≈ 181 µM) | 0.5 mg/L (≈ 1.41 µM) | 8 mg/L (≈ 22.6 µM) | CC(C)OC(=O)[C@H](Cn1ccnc1)NC(=O)c1cc2ccccc2n1C | – | – | – | –
4 | 16 mg/L (≈ 37.7 µM) | 64 mg/L (≈ 151 µM) | 64 mg/L (≈ 151 µM) | 2 mg/L (≈ 4.71 µM) | 0.25 mg/L (≈ 0.589 µM) | COc1ccc2c(c1)-c1onc(C(=O)N[C@@H](Cn3ccnc3)C(=O)OC(C)C)c1CC2 | – | – | – | –
5 | 64 mg/L (≈ 175 µM) | 64 mg/L (≈ 175 µM) | 64 mg/L (≈ 175 µM) | 32 mg/L (≈ 87.3 µM) | 64 mg/L (≈ 175 µM) | CC(C)COC(=O)[C@H](Cn1ccnc1)NC(=O)c1cnc2ccccc2c1 | – | – | – | –
6 | 64 mg/L (≈ 185 µM) | 64 mg/L (≈ 185 µM) | 64 mg/L (≈ 185 µM) | 32 mg/L (≈ 92.7 µM) | 64 mg/L (≈ 185 µM) | CC(C)OC(=O)[C@H](Cn1ccnc1)NC(=O)c1ccc2c(c1)OCO2 | – | – | – | –
7 | 32 mg/L (≈ 89.3 µM) | 8 mg/L (≈ 22.3 µM) | 64 mg/L (≈ 179 µM) | 0.5 mg/L (≈ 1.4 µM) | 32 mg/L (≈ 89.3 µM) | CC(C)OC(=O)[C@H](Cn1ccnc1)NC(=O)c1cc2ccc(F)cc2[nH]1 | – | – | – | –
8 | 64 mg/L (≈ 182 µM) | 64 mg/L (≈ 182 µM) | 64 mg/L (≈ 182 µM) | 32 mg/L (≈ 90.8 µM) | 64 mg/L (≈ 182 µM) | CC(C)OC(=O)[C@H](Cn1ccnc1)NC(=O)c1cnc2ccccc2c1 | – | – | – | –
9 | 1 mg/L (≈ 2.69 µM) | 1 mg/L (≈ 2.69 µM) | 8 mg/L (≈ 21.5 µM) | 0.25 mg/L (≈ 0.673 µM) | 0.5 mg/L (≈ 1.35 µM) | CC(C)COC(=O)[C@H](Cn1ccnc1)NC(=O)c1cc2ccccc2s1 | – | – | – | –
10 | 64 mg/L (≈ 187 µM) | 64 mg/L (≈ 187 µM) | 64 mg/L (≈ 187 µM) | 64 mg/L (≈ 187 µM) | 64 mg/L (≈ 187 µM) | CC(C)OC(=O)[C@H](Cn1ccnc1)NC(=O)c1nc2ccccc2[nH]1 | – | – | – | –
11 | 64 mg/L (≈ 180 µM) | 64 mg/L (≈ 180 µM) | 64 mg/L (≈ 180 µM) | 64 mg/L (≈ 180 µM) | 64 mg/L (≈ 180 µM) | Cc1nc2ccc(C(=O)N[C@@H](Cn3ccnc3)C(=O)OC(C)C)cc2o1 | – | – | – | –
12 | 64 mg/L (≈ 181 µM) | 64 mg/L (≈ 181 µM) | 64 mg/L (≈ 181 µM) | 16 mg/L (≈ 45.3 µM) | 64 mg/L (≈ 181 µM) | CC(C)OC(=O)[C@H](Cn1ccnc1)NC(=O)c1cnc2ccccc2n1 | – | – | – | –
13 | 2 mg/L (≈ 4.9 µM) | 64 mg/L (≈ 157 µM) | 64 mg/L (≈ 157 µM) | 1 mg/L (≈ 2.45 µM) | 16 mg/L (≈ 39.2 µM) | CC(C)OC(=O)[C@H](Cn1ccnc1)NC(=O)c1noc2c1CCCc1ccccc1-2 | – | – | – | –
14 | 64 mg/L (≈ 187 µM) | 64 mg/L (≈ 187 µM) | 64 mg/L (≈ 187 µM) | 32 mg/L (≈ 93.5 µM) | 64 mg/L (≈ 187 µM) | CC(C)OC(=O)[C@H](Cn1ccnc1)NC(=O)c1ccc2ncoc2c1 | – | – | – | –
15 | 32 mg/L (≈ 93.7 µM) | 4 mg/L (≈ 11.7 µM) | 32 mg/L (≈ 93.7 µM) | 0.5 mg/L (≈ 1.46 µM) | 16 mg/L (≈ 46.9 µM) | CC(C)OC(=O)[C@H](Cn1ccnc1)NC(=O)c1cc2ccccc2o1 | – | – | – | –
16 | 8 mg/L (≈ 21.7 µM) | 4 mg/L (≈ 10.9 µM) | 64 mg/L (≈ 174 µM) | 1 mg/L (≈ 2.71 µM) | 8 mg/L (≈ 21.7 µM) | CC(C)COC(=O)[C@H](Cn1ccnc1)NC(=O)c1cc2ccccc2n1C | – | – | – | –
17 | 8 mg/L (≈ 22.5 µM) | 4 mg/L (≈ 11.3 µM) | 32 mg/L (≈ 90 µM) | 0.25 mg/L (≈ 0.703 µM) | 8 mg/L (≈ 22.5 µM) | CC(C)COC(=O)[C@H](Cn1ccnc1)NC(=O)c1cc2ccccc2o1 | – | – | – | –
18 | 0.5 mg/L (≈ 1.14 µM) | 2 mg/L (≈ 4.57 µM) | > 64 mg/L | 1 mg/L (≈ 2.29 µM) | 0.125 mg/L (≈ 0.286 µM) | CC(C)OC(=O)[C@H](Cn1ccnc1)NC(=O)c1nc2ccc(Br)cc2s1 | – | – | – | –

Row | SMILES | MIC (Candida albicans [1]) | MIC (Cryptococcus neoformans) | MIC (Aspergillus fumigatus) | MIC (Candida tropicalis) | MIC (Candida albicans [2]) | MIC (Candida albicans [3]) | MIC (Candida albicans [4]) | remaining at 1 h, 2 µM [5] | remaining at 2 h, 2 µM [6]
19 | CC(C)COC(=O)[C@H](Cn1ccnc1)NC(=O)c1noc2c1CCc1ccccc1-2 | 0.5 mg/L (≈ 1.22 µM) | 4 mg/L (≈ 9.79 µM) | 8 mg/L (≈ 19.6 µM) | 0.125 mg/L (≈ 0.306 µM) | 0.125 mg/L (≈ 0.306 µM) | 1 mg/L (≈ 2.45 µM) | 0.5 mg/L (≈ 1.22 µM) | – | –
20 | CC(C)OC(=O)[C@H](Cn1ccnc1)NC(=O)c1noc2c1ccc1ccccc12 | 0.25 mg/L (≈ 0.637 µM) | 0.25 mg/L (≈ 0.637 µM) | 4 mg/L (≈ 10.2 µM) | 0.125 mg/L (≈ 0.319 µM) | 0.125 mg/L (≈ 0.319 µM) | 2 mg/L (≈ 5.1 µM) | 1 mg/L (≈ 2.55 µM) | 95.8% | 91.7%
21 | CC(C)COC(=O)[C@H](Cn1ccnc1)NC(=O)c1noc2c1ccc1ccccc12 | 0.25 mg/L (≈ 0.615 µM) | 0.125 mg/L (≈ 0.308 µM) | 16 mg/L (≈ 39.4 µM) | 0.125 mg/L (≈ 0.308 µM) | 0.125 mg/L (≈ 0.308 µM) | 2 mg/L (≈ 4.92 µM) | 2 mg/L (≈ 4.92 µM) | – | –
